Where two headings read alike, the source gives them in different places. No end group written: not given here.
Legend:
[1] = target: T1, DPP9 (Homo sapiens, UniProt Q86TI2); assay: Inhibition of GP-AMC hydrolysis by purified recombinant DPP9 at a single peptide concentration; type: biochemical; settings: 25 nM DPP9, 0.2 mM GP-AMC
T1 construct: made in house; host or cells: Sf9 insect cells (baculovirus)
Description: Accordingly, the peptide is capable of inhibiting the activity of wild-type DPP9 (SEQ ID NO: 6) to a level of 35 to 5% of the activity of wild-type DPP9 (SEQ ID NO: 6) if not inhibited, as determined in an assay using 25 nM purified DPP9, 0.2 mM GP-AMC, and 14 μM of the peptide to be tested, in TB buffer (20 mM Hepes/KOH pH 7.3, 110 mM potassium acetate, 2 mM Mg acetate, 0.5 mM EGTA), supplemented with 0.2% Tween-20, 1 mM dithiothreitol. Release of AMC from GP-AMC is measured using the Appliskan microplate fluorimeter (Thermo Scientific) with 380 nm (excitation) and 480 nm (emission) filters and the Skanit software, and analysed using the Prism software.
(§1) Kinetics assays: Purified recombinant DPP9 (25 nM) was incubated with varying concentrations of GP-AMC, in TB supplemented with 0.2% Tween-20, 1 mM ditiothreitol. For inhibition assays, inhibitory peptides were added directly to the reaction mixture. For activation by SUMO 0.2 mg/ml BSA, was added to the buffer to prevent non specific binding. DPP9 were incubated with 2.5 μM of either SUMO1, SUMO1 E67A, SUMO2 for 2 hour on ice prior to the assay. Alternatively DPP9 was incubated with 1 μM of RanGAP or RanGAP modified with either SUMO1 or SUMO2 for 2 hours prior to the assay. Fluorescence was measured using the Appliskan microplate fluorimeter (Thermo Scientific) with 380 nm (excitation) and 480 nm (emission) filters and the Skanit software, and analysed using the Prism software. Each experiment was performed at least three times, in replicates of four.
To improve the inhibition of DPP9, the inventors tested several peptide libraries composed of truncated variants of the EIL peptide (>80% pure, ordered from Genescript). These peptides were incubated with recombinant DPP9 and analysed GP-AMC hydrolysis. AMC release was then compared to samples containing either DPP9 alone, or the EIL peptide.

[2] = target: DPPIV (Homo sapiens, UniProt P27487); assay: GP-AMC hydrolysis by DPPIV in the presence of peptide; type: biochemical; settings: 25 nM DPPIV, 13 μM peptide
Description: Preferably, the peptide is capable of inhibiting the activity by wild-type DPP9 (SEQ ID NO: 6) to a level of 30 to 5%, 29 to 5%, 28 to 5%, 27 to 5%, 26 to 5%, 25 to 5%, 24 to 5%, 23 to 5%, 22 to 5%, 21 to 5%, 20 to 5%, 19 to 5%, 18 to 5%, 17 to 5%, 16 to 5%, 15 to 5%, 14 to 5%, 13 to 5%, 12 to 5%, 11 to 5%, 10 to 5%, 9 to 5%, 8 to 5%, such as 7.5 to 5% of the activity of wild-type DPP9 (SEQ ID NO: 6) if not inhibited. […] Release of AMC from GP-AMC is measured using the Appliskan microplate fluorimeter (Thermo Scientific) with 380 nm (excitation) and 480 nm (emission) filters and the Skanit software, and analysed using the Prism software.
(§2) A&B 25 nM purified recombinant (A) DPP9 or (B) DPP8 were incubated with varying concentrations of the EIL peptide (0, 3.3 μM and 6.6 μM) and tested for hydrolysis of GP-AMC (1000, 500, 250, 125, 0 μM). C. 25 nM DPPIV was tested for the hydrolysis of GP-AMC (500, 250, 125, 0 μM) in the presence of 0 or 13 μM EIL peptide. Fluorescence was measured using the Appliskan microplate fluorimeter (Thermo Scientific) with 380 nm (excitation) and 480 nm (emission) filters and the Skanit software, and analysed using the Prism software. Each experiment was performed at least three times, in replicates of four.

[3] = test system: cytosolic prolyl peptidase activity (HeLa cytosolic fractions); assay: GP-AMC hydrolysis in HeLa cytosolic fractions incubated with peptide; type: biochemical, human
Description: HeLa cytosolic fractions were incubated with 0, 27.7 or 55.6 μM peptide EIL, and immediately tested for hydrolysis of varying concentrations of A. GP-AMC or B. R-AMC. Fluorescence was measured using the Appliskan microplate fluorimeter (Thermo Scientific) with 380 nm (excitation) and 480 nm (emission) filters and the Skanit software, and analysed using the Prism software. Each experiment was performed at least three times, in replicates of four.
Since the EIL peptide can displace SUMO1 from a DPP9-SUMO1 or a DPP8-SUMO1 complex (FIG. 2D), the inventors tested whether the EIL peptide would inhibit the association-dependent activation of DPP8 and DPP9 by SUMO1 in cell extracts. For this the inventors incubated cytosolic extracts with the EIL peptide and tested for the hydrolysis of GP-AMC (FIG. 8A). […] For control, the inventors also measured the hydrolysis of R-AMC, which is not a substrate for DPP8 or DPP9 (FIG. 8B).

[4] = target: T2, DPP9-SUMO1 interaction (Homo sapiens, UniProt Q86TI2); assay: Peptide competition of DPP9 binding to SUMO1-immobilized beads (pull down); settings: 500 ng recombinant DPP9, peptide 0.1 mg/ml
T2 construct: made in house; host or cells: DPP9: Sf9 insect cells
Description: Ovalbumin (Ov) coupled beads were used for control. Bound proteins were detected by western blotting using specific antibodies. B. Shown is a pull down assay as in A with recombinant DPP9, DPP8, Uba2 or GST-PIAS3. C. Recombinant DPP9 was incubated with 15 mer peptides of a peptide library covering SUMO1 amino acid sequence. The DPP9-peptide solutions were then incubated with SUMO1-immobilized beads. Following extensive washing steps, bound DPP9 was eluted with sample buffer and detected DPP9-specific antibodies. D. Recombinant DPP8 and DPP9 were incubated with SUMO1-immobilized beads. To elute bound proteins, beads were incubated with either SUMO1-peptide 5 (overlapping SIG) or with SUMO1-peptide 9. […] Interacting DPP9 was detected using a DPP9 specific antibody. […] Interacting proteins were eluted with sample buffer and detected using specific antibodies. […]
To study the preferential association of DPP8 and DPP9 with SUMO1 but not SUMO2, the inventors aimed to identify the surfaces on SUMO1 involved in these interactions. First the inventors analysed the interaction of DPP9 with SUMO1 mutants in residues which were previously shown via NMR and crystal structures to interact with SIM containing proteins (Song et al, 2004; Hecker et al, 2006; Reverter & Lima, 2005). […] SUMO1-peptides 5 or 9 were then added and the release of bound DPP8 or DPP9 from the SUMO beads was analysed by SDS-PAGE (FIG. 2D). […]

[5] = target: T1, DPP9; assay: Kinetics assay, Ki for inhibition of DPP9 (GP-AMC hydrolysis); type: biochemical
Description: (§3) Enzyme kinetics and the Ki of DPP8 or DPP9 may be determined as follows: 25 nM purified recombinant enzyme (DPP9 or DPP8) are incubated with varying concentrations of GP-AMC ([…] GP-AMC), in TB buffer (20 mM Hepes/KOH pH 7.3, 110 mM potassium acetate, 2 mM Mg acetate, 0.5 mM EGTA), supplemented with 0.2% Tween-20, 1 mM dithiothreitol. Experiments are performed in triplicates. To measure Ki values, for each set of experiments, inhibitory peptides are added to DPP9 or DPP8. Peptide concentrations tested are in the range between 0.04 to 50 μM. Release of AMC from GP-AMC is measured using the Appliskan microplate fluorimeter (Thermo Scientific) with 380 nm (excitation) and 480 nm (emission) filters and the Skanit software, and analysed using the Prism software.
as §2, §1

[6] = target: T3, DPP8 (Homo sapiens, UniProt Q6V1X1); assay: Kinetics assay, Ki for inhibition of DPP8 (GP-AMC hydrolysis); type: biochemical
T3 construct: made in house; host or cells: Sf9 insect cells (baculovirus)
Description: as §3, §2

[7] = 14 μM peptide, no peptide = 100
[8] = 10 μM peptide, DPP9 alone = 100.3
[9] = 25 nM DPP9, 0, 5 or 20 μM peptide, GP-AMC 0-500 μM, read-out: Ki (μM) for inhibition of DPP9

T1 sequence (Q86TI2 1-892 isoform Q86TI2-2): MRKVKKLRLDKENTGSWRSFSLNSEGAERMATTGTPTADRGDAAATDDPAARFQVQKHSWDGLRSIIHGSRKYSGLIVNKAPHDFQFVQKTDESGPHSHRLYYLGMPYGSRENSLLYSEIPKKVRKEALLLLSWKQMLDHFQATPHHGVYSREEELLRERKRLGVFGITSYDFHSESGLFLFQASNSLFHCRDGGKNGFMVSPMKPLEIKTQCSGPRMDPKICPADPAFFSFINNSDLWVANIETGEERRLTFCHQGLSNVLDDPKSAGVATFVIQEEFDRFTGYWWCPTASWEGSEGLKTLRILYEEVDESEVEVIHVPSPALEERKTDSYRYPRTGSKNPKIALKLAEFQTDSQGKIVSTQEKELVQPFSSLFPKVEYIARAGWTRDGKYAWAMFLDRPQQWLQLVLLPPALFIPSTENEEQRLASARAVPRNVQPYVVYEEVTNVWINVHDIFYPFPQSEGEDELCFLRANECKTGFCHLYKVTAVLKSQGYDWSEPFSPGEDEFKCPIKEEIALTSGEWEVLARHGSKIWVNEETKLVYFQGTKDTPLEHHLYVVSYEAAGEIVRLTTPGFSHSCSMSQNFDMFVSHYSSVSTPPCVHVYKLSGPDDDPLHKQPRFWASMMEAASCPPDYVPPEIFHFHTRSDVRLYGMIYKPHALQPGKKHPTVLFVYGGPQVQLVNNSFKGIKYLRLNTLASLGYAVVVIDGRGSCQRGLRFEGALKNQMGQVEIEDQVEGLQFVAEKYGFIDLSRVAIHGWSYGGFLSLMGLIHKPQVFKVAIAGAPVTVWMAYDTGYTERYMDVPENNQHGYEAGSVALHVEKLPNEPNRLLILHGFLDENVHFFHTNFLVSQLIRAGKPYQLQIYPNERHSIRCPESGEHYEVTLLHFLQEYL
T2 sequence (Q86TI2 1-892 isoform Q86TI2-2): as above
Sequence of DPPIV (P27487 whole entry): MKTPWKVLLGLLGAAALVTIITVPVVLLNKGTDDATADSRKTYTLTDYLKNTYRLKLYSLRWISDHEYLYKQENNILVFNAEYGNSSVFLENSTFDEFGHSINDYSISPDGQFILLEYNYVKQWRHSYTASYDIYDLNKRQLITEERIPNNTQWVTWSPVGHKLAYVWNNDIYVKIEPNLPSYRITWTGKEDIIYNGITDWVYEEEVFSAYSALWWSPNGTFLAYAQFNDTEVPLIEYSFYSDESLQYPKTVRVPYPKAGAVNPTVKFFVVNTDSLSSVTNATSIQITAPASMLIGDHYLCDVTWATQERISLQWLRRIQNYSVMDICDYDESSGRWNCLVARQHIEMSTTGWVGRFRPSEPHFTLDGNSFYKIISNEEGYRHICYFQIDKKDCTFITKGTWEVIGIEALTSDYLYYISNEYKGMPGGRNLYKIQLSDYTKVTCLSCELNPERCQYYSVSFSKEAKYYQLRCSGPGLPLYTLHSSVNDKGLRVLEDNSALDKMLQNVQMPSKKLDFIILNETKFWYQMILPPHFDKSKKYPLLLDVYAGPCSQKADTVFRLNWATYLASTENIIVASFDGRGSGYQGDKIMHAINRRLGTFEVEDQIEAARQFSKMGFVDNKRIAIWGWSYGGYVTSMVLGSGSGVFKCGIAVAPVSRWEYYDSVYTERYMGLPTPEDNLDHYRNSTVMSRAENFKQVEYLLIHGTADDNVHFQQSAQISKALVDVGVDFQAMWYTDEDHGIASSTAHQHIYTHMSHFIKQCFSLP
T3 sequence (Q6V1X1 whole entry): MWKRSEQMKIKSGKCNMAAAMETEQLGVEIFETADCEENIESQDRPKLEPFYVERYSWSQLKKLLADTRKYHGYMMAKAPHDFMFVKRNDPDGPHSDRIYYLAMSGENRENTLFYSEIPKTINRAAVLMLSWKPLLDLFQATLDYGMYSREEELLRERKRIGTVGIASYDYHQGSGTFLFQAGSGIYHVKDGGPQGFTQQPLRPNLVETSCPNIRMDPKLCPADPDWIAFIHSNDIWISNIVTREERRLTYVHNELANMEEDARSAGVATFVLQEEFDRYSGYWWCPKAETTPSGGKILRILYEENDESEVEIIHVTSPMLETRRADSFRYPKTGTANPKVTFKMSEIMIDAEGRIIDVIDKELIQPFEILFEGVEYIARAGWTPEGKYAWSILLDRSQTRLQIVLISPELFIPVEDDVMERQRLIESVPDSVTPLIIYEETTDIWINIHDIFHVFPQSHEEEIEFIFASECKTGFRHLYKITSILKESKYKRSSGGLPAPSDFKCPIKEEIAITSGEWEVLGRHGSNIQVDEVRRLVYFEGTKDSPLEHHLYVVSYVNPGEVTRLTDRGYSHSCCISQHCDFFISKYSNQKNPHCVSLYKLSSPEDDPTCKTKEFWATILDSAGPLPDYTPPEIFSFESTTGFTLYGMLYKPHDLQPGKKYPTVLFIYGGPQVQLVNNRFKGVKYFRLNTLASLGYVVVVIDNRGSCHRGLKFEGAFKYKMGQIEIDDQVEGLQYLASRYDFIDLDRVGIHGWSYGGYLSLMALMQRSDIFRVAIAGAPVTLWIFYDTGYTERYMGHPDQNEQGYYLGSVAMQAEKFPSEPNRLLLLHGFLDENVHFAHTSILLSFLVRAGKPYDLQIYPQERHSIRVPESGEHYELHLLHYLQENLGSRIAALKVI

Substance | % DPP9 activity (Mean) [1, 7] [%] | % DPP9 activity (Mean) [1, 8] [%] | other results
H-SLRFLFEGQRIADNH | 27.45 |  | inhibition of DPPIV [2]: not inhibited; degradation of GP-AMC in cytosolic extracts ([3]; HeLa cytosolic fractions, 0, 27.7 or 55.6 μM peptide): strongly reduced; binding of DPP9 to the SUMO1 beads after pre-incubation with peptide [4]: strongly reduced
Acet-SLRFLFEG |  | 90.74 | 
LFEGQRIADNH (EIL peptide variant) | 67.77 |  | 
TLRFLFEG (SLRFLFEG; EIL variant peptide) |  | 29.2 | 
RRRRSLRFLFEG (RRRRSLRFLYAG; EIL variant peptide) |  | 92.2 | 
LFEGQR (FLIEGQRI; EIL peptide variant) | 51 |  | 
SLRFLFEGQRIADNH |  |  | Ki [5, 9]: 7.32 µM; Ki ([5]; read-out: Ki for DPP9): 7.4 µM; Ki [6]: 8.4 µM; stability of the peptide in cytosolic extracts ([3]; HeLa cytosolic extracts): stable in cytosolic extracts
H-SLRFLYEGQRIADNH | 13.06 |  | Ki [5, 9]: 2.56 µM
H-SLRFLFEG |  | 24.08 | Ki [5, 9]: 2 µM
FEGQRIADNH (SLRFLFEGQRIAD; EIL peptide variant) | 97.12 |  | 
FLFEGQRI (EIL peptide variant) | 48.41 |  | 
AAASLRFLYEG (SLRFLYEGAAA; EIL variant peptide) |  | 91.15 | 
SLRFLFEGQ (LRFLFEGQRIADN; EIL peptide variant) | 16.43 |  | 
SLRFLFEGQR (EIL peptide variant) | 24.27 |  | 
SLRFLFEAQRIADNH (LRFLFEGQRIADNH; EIL peptide variant) | 19.46 |  | 
H-SLRFLFAGQRIADNH | 5.093 |  | Ki [5, 9]: 1.43 µM

Source: US9593148B2, “DPP8 and DPP9 peptide inhibitors” (GEORG-AUGUST-UNIVERSITAT GOTTINGEN STIFTUNG OFFENTLICHEN …, priority 2012, dated 2017)
